Measurements reported in the NIST ThermoML archive (doi:10.1016/j.jct.2018.09.009).

Assays:
[1] = xn = mol fraction of the nth substance listed; conditions: Liquid, isochoric method
[2] = molar heat capacity at constant volume; xn = mol fraction of the nth substance listed; conditions: Liquid, Vacuum adiabatic calorimetry

C=C(F)C(F)(F)F [2,3,3,3-tetrafluoro-1-propene] + CCC
Conditions	mass density [kg/m3]	molar heat capacity at constant volume [J/K/mol]
[1], 254.28 K, 1867 kPa, x1 = 0.607	969.9	–
[1], 255.92 K, 1645 kPa, x1 = 0.825	1109.8	–
[1], 256.67 K, 3513 kPa, x1 = 0.607	969.4	–
[1], 258.25 K, 3241 kPa, x1 = 0.825	1109.2	–
[1], 259.05 K, 5156 kPa, x1 = 0.607	968.9	–
[1], 260.61 K, 4872 kPa, x1 = 0.825	1108.7	–
[1], 261.41 K, 6787 kPa, x1 = 0.607	968.5	–
[1], 262.96 K, 6492 kPa, x1 = 0.825	1108.1	–
[1], 263.78 K, 8419 kPa, x1 = 0.607	968	–
[1], 265.27 K, 8092 kPa, x1 = 0.825	1107.6	–
[1], 266.11 K, 10027 kPa, x1 = 0.607	967.5	–
[1], 267.59 K, 9690 kPa, x1 = 0.825	1107	–
[1], 268.42 K, 11618 kPa, x1 = 0.607	967	–
[1], 269.9 K, 11286 kPa, x1 = 0.825	1106.5	–
[1], 270.72 K, 13214 kPa, x1 = 0.607	966.5	–
[1], 272.22 K, 12888 kPa, x1 = 0.825	1105.9	–
[1], 290.26 K, 1730 kPa, x1 = 0.521	821.2	–
[1], 292.5 K, 2803 kPa, x1 = 0.521	820.9	–
[1], 294.78 K, 3896 kPa, x1 = 0.521	820.6	–
[1], 297.13 K, 5024 kPa, x1 = 0.521	820.3	–
[1], 299.47 K, 6148 kPa, x1 = 0.521	820	–
[1], 301.86 K, 7296 kPa, x1 = 0.521	819.7	–
[1], 304.23 K, 8438 kPa, x1 = 0.521	819.4	–
[1], 306.62 K, 9582 kPa, x1 = 0.521	819.1	–
[1], 309.04 K, 10744 kPa, x1 = 0.521	818.8	–
[1], 311.5 K, 11920 kPa, x1 = 0.521	818.5	–
[1], 313.73 K, 1699 kPa, x1 = 0.285	626	–
[1], 313.86 K, 13057 kPa, x1 = 0.521	818.2	–
[1], 316.16 K, 2581 kPa, x1 = 0.285	625.9	–
[1], 318.63 K, 3477 kPa, x1 = 0.285	625.7	–
[1], 321.06 K, 4361 kPa, x1 = 0.285	625.5	–
[1], 323.51 K, 5252 kPa, x1 = 0.285	625.3	–
[1], 326.04 K, 6172 kPa, x1 = 0.285	625.1	–
[1], 328.54 K, 7079 kPa, x1 = 0.285	624.9	–
[1], 331.04 K, 7988 kPa, x1 = 0.285	624.7	–
[1], 333.51 K, 8883 kPa, x1 = 0.285	624.5	–
[1], 336.01 K, 9790 kPa, x1 = 0.285	624.3	–
[1], 338.48 K, 10686 kPa, x1 = 0.285	624.1	–
[1], 340.94 K, 11578 kPa, x1 = 0.285	624	–
[1], 343.4 K, 12468 kPa, x1 = 0.285	623.8	–
[1], 345.88 K, 13366 kPa, x1 = 0.285	623.6	–
[1], 348.3 K, 14239 kPa, x1 = 0.285	623.4	–
[2], 255.48 K, 2690 kPa, x1 = 0.607	–	81.79
[2], 257.09 K, 2443 kPa, x1 = 0.825	–	89.48
[2], 257.86 K, 4335 kPa, x1 = 0.607	–	82.48
[2], 259.43 K, 4057 kPa, x1 = 0.825	–	89.48
[2], 260.23 K, 5972 kPa, x1 = 0.607	–	82.92
[2], 261.79 K, 5682 kPa, x1 = 0.825	–	90.4
[2], 262.6 K, 7603 kPa, x1 = 0.607	–	82.74
[2], 264.12 K, 7292 kPa, x1 = 0.825	–	90.81
[2], 264.95 K, 9223 kPa, x1 = 0.607	–	83.87
[2], 266.43 K, 8891 kPa, x1 = 0.825	–	90.2
[2], 267.27 K, 10823 kPa, x1 = 0.607	–	83.61
[2], 268.75 K, 10488 kPa, x1 = 0.825	–	91.52
[2], 269.57 K, 12416 kPa, x1 = 0.607	–	84.82
[2], 271.06 K, 12087 kPa, x1 = 0.825	–	91.21
[2], 275.52 K, 2097 kPa, x1 = 0.825	–	93.05
[2], 276.02 K, 1993 kPa, x1 = 0.607	–	87.59
[2], 277.84 K, 3440 kPa, x1 = 0.825	–	93.86
[2], 278.37 K, 3320 kPa, x1 = 0.607	–	87.07
[2], 280.2 K, 4817 kPa, x1 = 0.825	–	94.67
[2], 280.75 K, 4661 kPa, x1 = 0.607	–	88.46
[2], 282.57 K, 6197 kPa, x1 = 0.825	–	95.49
[2], 283.13 K, 6012 kPa, x1 = 0.607	–	88.11
[2], 284.92 K, 7561 kPa, x1 = 0.825	–	95.18
[2], 285.51 K, 7357 kPa, x1 = 0.607	–	88.54
[2], 287.24 K, 8908 kPa, x1 = 0.825	–	95.69
[2], 287.89 K, 8694 kPa, x1 = 0.607	–	88.89
[2], 289.57 K, 10249 kPa, x1 = 0.825	–	96.1
[2], 290.27 K, 10038 kPa, x1 = 0.607	–	89.15
[2], 291.9 K, 11593 kPa, x1 = 0.825	–	97.32
[2], 292.66 K, 11390 kPa, x1 = 0.607	–	89.15
[2], 295.03 K, 12722 kPa, x1 = 0.607	–	89.41
[2], 295.93 K, 1917 kPa, x1 = 0.825	–	96.81
[2], 298.32 K, 3042 kPa, x1 = 0.825	–	97.73
[2], 300.77 K, 4193 kPa, x1 = 0.825	–	97.63
[2], 302.78 K, 1793 kPa, x1 = 0.607	–	91.49
[2], 303.23 K, 5349 kPa, x1 = 0.825	–	97.53
[2], 305.28 K, 2835 kPa, x1 = 0.607	–	91.83
[2], 305.69 K, 6504 kPa, x1 = 0.825	–	99.26
[2], 307.82 K, 3898 kPa, x1 = 0.607	–	91.4
[2], 308.14 K, 7659 kPa, x1 = 0.825	–	98.75
[2], 310.37 K, 4961 kPa, x1 = 0.607	–	92.35
[2], 310.6 K, 8808 kPa, x1 = 0.825	–	100.68
[2], 312.91 K, 6022 kPa, x1 = 0.607	–	93.48
[2], 313.06 K, 9957 kPa, x1 = 0.825	–	100.58
[2], 314.95 K, 2140 kPa, x1 = 0.285	–	84.58
[2], 315.46 K, 7086 kPa, x1 = 0.607	–	93.82
[2], 315.53 K, 11107 kPa, x1 = 0.825	–	102.31
[2], 317.06 K, 2127 kPa, x1 = 0.521	–	93.58
[2], 317.4 K, 3029 kPa, x1 = 0.285	–	85.48
[2], 318.01 K, 8150 kPa, x1 = 0.607	–	94.52
[2], 319.49 K, 2066 kPa, x1 = 0.825	–	102.21
[2], 319.6 K, 2994 kPa, x1 = 0.521	–	93.99
[2], 319.85 K, 3919 kPa, x1 = 0.285	–	86.63
[2], 320.54 K, 9207 kPa, x1 = 0.607	–	95.55
[2], 322.06 K, 2960 kPa, x1 = 0.825	–	103.02
[2], 322.15 K, 3867 kPa, x1 = 0.521	–	94.07
[2], 322.29 K, 4807 kPa, x1 = 0.285	–	87.15
[2], 323.08 K, 10263 kPa, x1 = 0.607	–	96.25
[2], 324.62 K, 3854 kPa, x1 = 0.825	–	104.35
[2], 324.7 K, 4739 kPa, x1 = 0.521	–	94.55
[2], 324.78 K, 5712 kPa, x1 = 0.285	–	87.47
[2], 325.63 K, 11326 kPa, x1 = 0.607	–	96.68
[2], 327.17 K, 4744 kPa, x1 = 0.825	–	105.16
[2], 327.23 K, 5608 kPa, x1 = 0.521	–	95.28
[2], 327.29 K, 6626 kPa, x1 = 0.285	–	87.72
[2], 329.73 K, 5637 kPa, x1 = 0.825	–	105.87
[2], 329.76 K, 6474 kPa, x1 = 0.521	–	95.44
[2], 329.79 K, 7534 kPa, x1 = 0.285	–	87.53
[2], 332.28 K, 8436 kPa, x1 = 0.285	–	87.98
[2], 332.3 K, 6534 kPa, x1 = 0.825	–	105.97
[2], 332.3 K, 7345 kPa, x1 = 0.521	–	94.79
[2], 334.76 K, 9337 kPa, x1 = 0.285	–	88.36
[2], 334.85 K, 7427 kPa, x1 = 0.825	–	106.28
[2], 334.85 K, 8221 kPa, x1 = 0.521	–	95.92
[2], 337.25 K, 10238 kPa, x1 = 0.285	–	88.81
[2], 337.4 K, 8319 kPa, x1 = 0.825	–	106.89
[2], 337.4 K, 9098 kPa, x1 = 0.521	–	96.32
[2], 339.71 K, 11132 kPa, x1 = 0.285	–	88.87
[2], 339.93 K, 9963 kPa, x1 = 0.521	–	96.24
[2], 339.94 K, 9209 kPa, x1 = 0.825	–	106.69
[2], 342.17 K, 12023 kPa, x1 = 0.285	–	89.07
[2], 342.44 K, 10822 kPa, x1 = 0.521	–	96.32
[2], 342.47 K, 10092 kPa, x1 = 0.825	–	106.89
[2], 344.64 K, 12917 kPa, x1 = 0.285	–	89.19
[2], 344.94 K, 11680 kPa, x1 = 0.521	–	96.56
[2], 345.02 K, 10985 kPa, x1 = 0.825	–	107.2
[2], 347.09 K, 13803 kPa, x1 = 0.285	–	89.32
[2], 347.44 K, 12532 kPa, x1 = 0.521	–	96.89
[2], 347.55 K, 11870 kPa, x1 = 0.825	–	106.38
